# Data reported in article PMC13576449, “Small-Molecule Activators of PRMT1: Discovery, SAR Analyses, and Proapoptotic Effects in Pancreatic Cancer Cells” (Journal of Medicinal Chemistry, 2026).
# How the values were obtained:
# ADMA in PANC-1 cells = test: Western blot of global ADMA levels in PANC-1 cells; format: cell-based, human; conditions: PANC-1, 72 h, 10 and 20 μM (TR-033 2.5 and 5 μM), vs DMSO
# Protocol: As negative control (Ctrl (−)), PRMT1 enzymes and [^14C-methyl]-SAM were incubated without substrates. Subsequently, samples were separated by SDS-PAGE, blotted, and analyzed by autoradiography. Substrates (H2A, H4 or GST-GAR) and molecular weights (kDa) of the protein marker are indicated. Black lines designate composite images, assembled from the same blots and exposure times. The methylation signals of the substrates were densitometrically quantified, and expressed relative to the DMSO-treated control, as indicated by the numbers below the autoradiographs. Representative results are depicted, with quantification graphs (below the autoradiographs in A and B) summarizing biological replicates. […] Subsequently, GST-GAR was immobilized on glutathione-beads and PRMT1 activity was measured by quantifying the incorporation of ^14C-methyl groups (in cpm) using liquid scintillation counting. […] Cell viability was quantified using the CellTiter-Glo assay. […] Subsequently, whole-cell extracts were prepared and analyzed by Western blot using antibodies against ADMA, ACTIN (ACT), and VINCULIN (VINC), of which the latter two stainings served as loading controls. […] All the ADMA signals per lane were densitometrically quantified, normalized to the signal of the respective loading control and expressed relative to the DMSO-treated control, as indicated by the numbers below the immunostainings. […]
# PaTu8988T cells = test: Annexin V/PI flow cytometry apoptosis assay, PaTu8988T; format: cell-based, human; conditions: for gemcitabine-induced apoptosis, AV/PI flow cytometry, co-treatment: TR-033 5 µM, TR-036 10 µM, ICTR-059 5 µM, after 24 h gemcitabine 1 μM, vs gemcitabine alone
# Protocol: 6 Effect of small-molecule modulators on gemcitabine-induced apoptosis and tumor growth of PDAC cells. […] Subsequently, the luminescence-based caspase3/7 assay was performed. The activity of caspase 3/7 in treated cells was normalized to the activity measured in untreated cells (dark gray bar), which was set to 1 (mean SD, n = 6 for PANC-1 and n = 4 for PaTu8988T; *: p ≤ 0.05, **: p ≤ 0.01, ***: p ≤ 0.001, using the student t-test). […] After 24 h, gemcitabine (GEM, 1 μM) was added (+) or not (−) for another incubation of 48 h. Subsequently, the apoptotic cell fraction was quantified in % by flow cytometry using FITC-labeled Annexin V (AV) and propidium iodide (PI) staining (in B: mean ± SD, n = 6 for PANC-1 and n = 5 for PaTu8988T; **: p ≤ 0.01, ***: p ≤ 0.001, ****: p ≤ 0.0001, using the student t-test). […] Viable cells are AV/PI double-negative (AV–/PI–, lower left quadrant, Q4), early apoptotic cells are AV single-positive (AV+/PI– upper left quadrant, Q1), late apoptotic cells are AV/PI double-positive (AV+/PI+, upper right quadrant, Q2), and necrotic cells are PI single-positive (AV–/PI+, lower right quadrant, Q3). The sum of early and late apoptotic cell numbers (Q2+Q3 in %) is indicated in red. D-G: The workflow of the PDAC xenograft experiments in mice is depicted in D. PANC-1 cells (2 × 10^6 cells/mouse) were subcutaneously (s.c.) injected in the right flank of female athymic nude mice. […] Tumor volumes were measured every second day using a digital caliper. […] At the end of the 2 weeks, mice were sacrificed and tumors were dissected (F).
# For quantification of apoptosis by Fluorescence Activated Cell Sorting (FACS), PANC-1 and PaTu8988T cells were seeded in 6-well plates (250 × 10^3 cells/well) and cultured in the absence or presence of compounds. After 24 h, gemcitabine was added or not for another 48 h. After harvesting and washing, unfixed cells (0.5–1 × 10^6) were incubated with FITC-labeled Annexin V and/or PI (BD Pharmingen) according to the manufacturer’s instructions. All samples were analyzed using a BD FACSCalibur flow cytometer (BD Bioscience). Data were acquired using the CellQuestPro program and analyzed with the FlowJo (FlowJo LLC) software.
# After 24 hours, gemcitabine (GEM, 1 µM) was added (+) or not
# (-) for another incubation of 48 hours. Subsequently, the apoptotic cell fraction was assessed by flow cytometry using FITC-labeled Annexin V (AV) and propidium iodide (PI) staining and quantified in % (mean ± SD, n=3-4; ns: not significant, *: p ≤0.05, **: p ≤0.01, ***: p ≤0.001, ****: p ≤0.0001, using the student t-test).
Compound,global arginine methylation (ADMA) in cells (ADMA in PANC-1 cells),"viability at 10 µM (PaTu8988T cells; Homo sapiens, PaTu 8988t, 48 h, read-out: Q4, viable cells (AV–/PI–)) [%]","apoptosis, AV/PI flow cytometry, single agent (PaTu8988T cells; PaTu8988T, TR-07 10 μM)","gemcitabine-induced apoptosis, AV/PI flow cytometry, co-treatment (PaTu8988T cells; PaTu8988T, TR-07 10 μM, 48 h)"
"CN(C)Cc1cccc(CN/C=C2\C(=O)NC(=O)c3ccccc32)c1.Cl [TR-07, (Z)-1-[3-({[(1,3-Dioxo-2,3-dihydroisoquinolin-4(1H)-lidene)methyl]amino}methyl)phenyl]-N,N-dimethylmethanaminium chloride]",concentration-dependent increase in global arginine methylation,95.8,did not significantly induce apoptosis,significant increase in the early and late apoptotic stages
"CN(C)Cc1cccc(-c2ccc3[nH]c(=O)c4ccccc4c3c2)c1 [TR-033, 2-{3-[(Dimethylamino)methyl]phenyl}phenanthridin-6(5H)-One]",did not produce consistent effects,,,rather diminished the gemcitabine-triggered cell death
"CCN(CC)Cc1cccc(N/C=C2\C(=O)NC(=O)c3ccccc32)c1.Cl [TR-036, (Z )-N-(3-{[(1,3-Dioxo-2,3-dihydroisoquinoline-4(1 H )-ylidene)methyl]amino}benzyl)-N -ethylethanaminium chloride]",,,,rather diminished the gemcitabine-triggered cell death
"(Z)-2-(2-{[(1,3-Dioxo-2,3-dihydroisoquinolin-4(1H)-ylidene)methyl]amino}phenyl)-N,N-dimethylethan-1-aminium chloride [ICTR-059]",,,,weakly enhanced the gemcitabine-induced apoptosis
